{"source": "paper PMC9145865", "about": "“Effects of Rare Phytocannabinoids on the Endocannabinoid System of Human Keratinocytes” (International Journal of Molecular Sciences, 2022)", "key": {"[1]": {"test_system": "TRPV1", "experiment": "TRPV1 calcium assay (capsaicin-triggered intracellular Ca2+ release)", "assay_type": "cell-based, human", "conditions": "HaCaT cells, half-IC50 amount, 24 h; capsaicin 1 µM; vs. control", "procedure": "The effects of the pCBs on intracellular Ca^2+ release that was induced by TRPV1 activation was determined using the selective intracellular fluorescent probe Fluo-3 AM (Molecular probes, Eugene, OR, USA). The HaCaT cells (1 × 10^6 cells) were loaded for 15 min at 25 °C with 4 µM of Fluo-3 AM, which contained 0.02% Pluronic F-127 (Molecular probes) in an OPTIMEM medium, and then they were washed in the Tyrode’s buffer (145 mM of NaCl, 2.5 mM of KCl, 1.5 mM of CaCl2, 1.2 mM of MgCl2, 10 mM of D-glucose and 10 mM of HEPES; pH 7.4), resuspended in 2 mL of the Tyrode’s buffer and transferred into the quartz cuvette of the LS50B spectrofluorometer (Perkin Elmer, Waltham, MA, USA). Fluorescence was measured at 25 °C (excitation at λ = 488 nm; emission at λ = 516 nm) from the HaCaT cells, which had been pre-incubated with each pCB (6.0 µM of CBG, 4.0 of µM CBC, 9.0 µM of THCV and 13.0 µM of CBGA) and then stimulated with the selective TRPV1 agonist capsaicin (1 µM), as reported in [64]. The TRPV1-mediated intracellular Ca^2+ elevation was expressed as fluorescence intensity (arbitrary units, AU) per 10^6 cells."}, "[2]": {"test_system": "CB1/2", "experiment": "Receptor binding assay on adherent living cells with [3H]CP 55,940", "parameters": "species or system human", "conditions": "HaCaT cells treated 24 h with half-IC50 amount; for total CB1/2 binding activity (in words): vs. control; for CB1/2 Binding Activity (pmol/mg of Protein): 2.5 nM [3H]CP 55,940, mean ± SEM, n = 3", "procedure": "We also sought to investigate the effects of half-IC50 doses of pCBs on the functional activity of eCB-binding receptors (CB1/2 and TRPV1) and the AEA and 2-AG metabolizing enzymes (NAPE-PLD, FAAH, DAGLα/β and MAGL) when used to treat HaCaT cells for 24 h, for which an assay procedure was available. To this end, a CB1/2 ligand binding assay was performed using the radiolabeled synthetic cannabinoid [^3H]CP 55,940, which acts as a full agonist of both cannabinoid receptors with high and roughly equal affinity.\nThe HaCaT cells were seeded into 12-well plates at a density of 2 × 10^4 per well, incubated overnight and then treated with the selected pCBs (6.0 µM of CBG, 4.0 µM of CBC, 9.0 µM of THCV and 13.0 µM CBGA) for 24 h. Each well of the 12-well plates was washed twice with 1 mL of PBS and treated with 500 µL of incubation buffer (50 mM of Tris–HCl, 5 mM of MgCl2 and 1 mM of CaCl2; 0.2% BSA; pH 7.4), preheated to 37 °C and then incubated for 15 min at 37 °C. Then, 2.5 nM of [^3H]CP 55,940 was added and incubation occurred for 1 h in an incubator that was set at 37 °C. Afterward, the buffer was carefully removed and the cells were washed again with an ice-cold washing buffer (50 mM of Tris–HCl and 500 mM of NaCl; 0.1% BSA; pH 7.4). Unspecific binding was determined in the presence of 1 µM of synthetic agonist CP 55,940 [60]. Then, 500 µL of 0.5 M NaOH was added to each well and the cells were pipetted up and down several times in order to be lysed. The resuspension was then transferred to a 10-mL scintillation vial with a liquid scintillation cocktail and radioactivity was immediately read using a scintillation β-counter (Tri-Carb 2810 TR, Perkin Elmer, Waltham, MA, USA), as described in [40]."}, "[3]": {"test_system": "CB2", "conditions": "cited from earlier work"}, "[4]": {"test_system": "MAGL", "experiment": "MAGL activity assay in membranes of treated cells", "assay_type": "cell-based, human", "conditions": "HaCaT cells, half-IC50 amount, 24 h, vs. control", "procedure": "MAGL Assay: The HaCaT cells were seeded into 6-well plates at a density of 4 × 10^4 per well, incubated overnight and then treated with the selected pCBs (6.0 µM of CBG, 4.0 µM of CBC, 9.0 µM of THCV and 13.0 µM of CBGA) for 24 h. The cell pellets were collected and MAGL activity was determined using membranes that were isolated from these cells using the synthetic substrate arachidonoyl-1-thio-glycerol (200 μM) in 10 mM of Tris and 1 mM of EDTA pH 7.2 at 4 °C for 15 min [68]. The MAGL inhibitor JZL184 (4 μM), which was purchased from Sigma-Aldrich (St. Louis, MO, USA), was used to fully erase the enzyme activity as a control."}, "[5]": {"test_system": "human TRPV1", "parameters": "method as in PMID 21175579", "conditions": "over-expressed by HEK-293 cells; ref [41]; cited from earlier work"}, "[6]": {"test_system": "TRPV1", "experiment": "Western blot protein expression of TRPV1", "assay_type": "cell-based, human", "conditions": "HaCaT cells, half-IC50 dose, 24 h, vs. control", "procedure": "The HaCaT cells were seeded into 6-well plates at a density of 4 × 10^4 per well, incubated overnight and then treated with the selected pCBs (6.0 µM of CBG, 4.0 µM of CBC, 9.0 µM of THCV and 13.0 µM of CBGA) for 24 h. The cell pellets were collected and then lysed in an ice-cold lysis buffer (10 mM of EDTA, 50 mM of pH 7.4 Tris–HCl, 150 mM of sodium chloride, 1% Triton-X-100, 2 mM of phenylmethylsulfonyl fluoride, 2 mM of sodium orthovanadate, […] of leupeptin and […] of aprotinin). The amount of protein was determined using the Bio-Rad Protein assay (Bio-Rad Laboratories, Hemel Hempstead, UK). An equal amount of protein (60 µg) was loaded onto 10% sodium dodecyl sulfate–polyacrylamide gels and blotted onto polyvinylidene fluoride sheets (Amersham Biosciences, Piscataway, NJ, USA). The membranes were blocked with dried 5% non-fat milk for 1 h and then incubated with suitable primary antibodies. Detection was performed using Azure Biosystems c400 (Dublin, CA, USA). The membranes were stripped using the Restore Western Blot Stripping Buffer from Thermo Fisher Scientific (Waltham, MA, USA) for 30 min under agitation at room temperature, according to the manufacturer’s instructions. The primary antibodies (Table 6) that were used were obtained from the following sources: […]"}}, "note": "“Also recorded” adds a separate entry of the source. Read-outs that look alike come from different tables or passages of the source.", "data": [{"compound": "CCCc1cc(O)c2c(c1)OC(C)(C)[C@@H]1CCC(C)=C[C@@H]21", "note": "[THCV, Δ^9-tetrahydrocannabivarin]", "values": [{"measurement": "TRPV1 channel stimulation (intracellular Ca2+ release triggered by capsaicin)", "setting": "[1]", "value": "significantly increased"}, {"measurement": "total CB1/2 binding activity (in words)", "setting": "[2]", "value": "significantly increased"}, {"measurement": "CB1/2 Binding Activity (pmol/mg of Protein)", "setting": "[2]", "value": "8.187 ± 0.302 pmol/mg of Protein"}, {"measurement": "activity at CB2", "setting": "[3]; in vivo and in vitro, ref [53]", "value": "partial CB2 agonist"}, {"measurement": "activity of MAGL", "setting": "[4]", "value": "significantly increased"}, {"measurement": "effectiveness in human TRPV1", "setting": "[5]", "value": "high effectiveness"}, {"measurement": "Protein Expression TRPV1", "setting": "[6]", "value": "↑++++"}]}, {"compound": "CCCCCc1cc(O)c(C/C=C(\\C)CCC=C(C)C)c(O)c1C(=O)O", "note": "[CBGA, cannabigerolic acid]", "values": [{"measurement": "TRPV1 channel stimulation (intracellular Ca2+ release triggered by capsaicin)", "setting": "[1]", "value": "significantly increased"}, {"measurement": "total CB1/2 binding activity (in words)", "setting": "[2]", "value": "significantly increased"}, {"measurement": "CB1/2 Binding Activity (pmol/mg of Protein)", "setting": "[2]", "value": "8.373 ± 0.410 pmol/mg of Protein"}, {"measurement": "activity at CB2", "setting": "[3]; ref [52]", "value": "partial agonists"}, {"measurement": "activity of MAGL", "setting": "[4]", "value": "significantly increased"}, {"measurement": "Protein Expression TRPV1", "setting": "[6]", "value": "↑++++"}]}, {"compound": "CCCCCc1cc(O)c2c(c1)OC(C)(CCC=C(C)C)C=C2", "note": "(stereo not drawn) [CBC, cannabichromene]", "values": [{"measurement": "TRPV1 channel stimulation (intracellular Ca2+ release triggered by capsaicin)", "setting": "[1]", "value": "significantly increased"}, {"measurement": "total CB1/2 binding activity (in words)", "setting": "[2]", "value": "significantly increased"}, {"measurement": "CB1/2 Binding Activity (pmol/mg of Protein)", "setting": "[2]", "value": "10.380 ± 0.750 pmol/mg of Protein"}, {"measurement": "activity at CB2", "setting": "[3]; ref [28],[50],[51]", "value": "CB2 agonist"}, {"measurement": "activity of MAGL", "setting": "[4]", "value": "significantly increased"}, {"measurement": "effectiveness in human TRPV1", "setting": "[5]", "value": "to a lesser extent"}, {"measurement": "Protein Expression TRPV1", "setting": "[6]", "value": "↑++++"}]}, {"compound": "CCCCCc1cc(O)c(C/C=C(\\C)CCC=C(C)C)c(O)c1", "note": "[CBG, cannabigerol]", "values": [{"measurement": "TRPV1 channel stimulation (intracellular Ca2+ release triggered by capsaicin)", "setting": "[1]", "value": "significantly increased"}, {"measurement": "total CB1/2 binding activity (in words)", "setting": "[2]", "value": "significantly increased; also recorded: doubled"}, {"measurement": "CB1/2 Binding Activity (pmol/mg of Protein)", "setting": "[2]", "value": "8.027 ± 0.681 pmol/mg of Protein"}, {"measurement": "activity at CB2", "setting": "[3]; ref [52]", "value": "partial agonists"}, {"measurement": "activity of MAGL", "setting": "[4]", "value": "significantly increased"}, {"measurement": "effectiveness in human TRPV1", "setting": "[5]", "value": "high effectiveness"}, {"measurement": "Protein Expression TRPV1", "setting": "[6]", "value": "↑++++"}]}]}
